Read-outs that look alike come from different tables or passages of the source.
Legend:
[1] = Bone calcium mobilization (serum calcium) in vitamin D-deficient rats; assay type: in vivo, rat
Description: (§1) Intestinal Calcium Transport and Bone Calcium Mobilization
(§2) Male, weanling Sprague-Dawley rats were placed on Diet 11 (0.47% Ca) diet+AEK oil for one week followed by Diet 11 (0.02% Ca)+AEK oil for 3 weeks. The rats were then switched to a diet containing 0.47% Ca for one week followed by two weeks on a diet containing 0.02% Ca. Dose administration began during the last week on 0.02% calcium diet. Four consecutive ip doses were given approximately 24 hours apart. Twenty-four hours after the last dose, blood was collected from the severed neck and the concentration of serum calcium determined as a measure of bone calcium mobilization. The first 10 cm of the intestine was also collected for intestinal calcium transport analysis using the everted gut sac method.

[2] = system: 24-hydroxylase (24Ohase) gene promoter in ROS 17/2.8 (bone) cells; experiment: In vitro transcription assay (24-hydroxylase promoter luciferase reporter); assay type: cell-based; conditions: ROS 17/2.8 cells, FIG. 3, read-out: EC50, transcriptional activity in bone cells (24-hydroxylase gene)
Description: In Vitro Transcription Assay
Transcription activity was measured in ROS 17/2.8 (bone) cells that were stably transfected with a 24-hydroxylase (24Ohase) gene promoter upstream of a luciferase reporter gene (Arbour et al., 1998). Cells were given a range of doses. Sixteen hours after dosing the cells were harvested and luciferase activities were measured using a luminometer.
RLU=relative luciferase units.

[3] = Intestinal calcium transport (everted gut sac) in vitamin D-deficient rats; assay type: in vivo, rat
Description: as §1, §2

[4] = target: T1, full-length recombinant rat vitamin D receptor (Rattus norvegicus, UniProt P13053); experiment: Vitamin D receptor binding, competition with [3H]-1,25(OH)2D3; conditions: full-length recombinant rat VDR; FIG. 1
T1 construct: Full-length recombinant rat receptor was expressed in E. coli; histidine tag (C); made in house; host or cells: E. coli BL21 (DE3) Codon Plus RIL
T1 sequence (P13053 1-423): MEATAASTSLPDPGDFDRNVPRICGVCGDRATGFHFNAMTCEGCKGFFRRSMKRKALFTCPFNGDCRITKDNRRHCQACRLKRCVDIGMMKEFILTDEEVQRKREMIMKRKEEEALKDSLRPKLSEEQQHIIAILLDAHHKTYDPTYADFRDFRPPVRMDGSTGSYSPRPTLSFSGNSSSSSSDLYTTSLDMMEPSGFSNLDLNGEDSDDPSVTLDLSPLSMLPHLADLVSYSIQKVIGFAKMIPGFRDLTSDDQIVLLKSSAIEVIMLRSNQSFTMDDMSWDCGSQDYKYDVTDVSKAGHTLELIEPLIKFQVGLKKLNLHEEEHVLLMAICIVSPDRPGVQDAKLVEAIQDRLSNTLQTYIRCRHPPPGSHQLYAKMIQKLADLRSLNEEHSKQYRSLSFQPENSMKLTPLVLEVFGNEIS
Text: Vitamin D Receptor Binding
Full-length recombinant rat receptor was expressed in E. coli BL21 (DE3) Codon Plus RIL cells and purified to homogeneity using two different column chromatography systems. The first system was a nickel affinity resin that utilizes the C-terminal histidine tag on this protein. The protein that was eluted from this resin was further purified using ion exchange chromatography (S-Sepharose Fast Flow). Aliquots of the purified protein were quick frozen in liquid nitrogen and stored at −80° C. until use. For use in binding assays, the protein was diluted in TEDK50 (50 mM Tris, 1.5 mM EDTA, pH7.4, 5 mM DTT, 150 mM KCl) with 0.1% Chaps detergent. The receptor protein and ligand concentration were optimized such that no more than 20% of the added radiolabeled ligand was bound to the receptor.
The following day, 100 mcl of hydroxylapatite slurry (50%) was added to each tube and mixed at 10-minute intervals for 30 minutes. The hydroxylapaptite was collected by centrifugation and then washed three times with Tris-EDTA buffer (50 mM Tris, 1.5 mM EDTA, pH 7.4) containing 0.5% Titron X-100. After the final wash, the pellets were transferred to scintillation vials containing 4 ml of Biosafe II scintillation cocktail, mixed and placed in a scintillation counter. Total binding was determined from the tubes containing only radiolabeled ligand.

HL-60 cells = experiment: HL-60 differentiation (nitro blue tetrazolium reduction); assay type: cell-based, human; conditions: differentiation of HL-60 cells into monocytes, FIG. 2, read-out: EC50, HL-60 cell differentiation
Description: The study drugs were dissolved in ethanol and the concentrations determined using UV spectrophotometry. Serial dilutions were prepared so that a range of drug concentrations could be tested without changing the final concentration of ethanol (≤0.2%) present in the cell cultures.
Human promyelocytic leukemia (HL60) cells were grown in RPMI-1640 medium containing 10% fetal bovine serum. The cells were incubated at 37° C. in the presence of 5% CO2.
HL60 cells were plated at 1.2×10^5 cells/ml. Eighteen hours after plating, cells in duplicate were treated with drug. Four days later, the cells were harvested and a nitro blue tetrazolium reduction assay was performed (Collins et al., 1979; J. Exp. Med. 149:969-974). The percentage of differentiated cells was determined by counting a total of 200 cells and recording the number that contained intracellular black-blue formazan deposits. Verification of differentiation to monocytic cells was determined by measuring phagocytic activity (data not shown).

| Structure (SMILES) | bone calcium mobilization at 780 pmol/day ([1]; 780 pmol/day, FIG. 4B, second group of animals) | dose giving about the same mobilization of bone calcium as 1,25(OH)2D3 at 260 pmol/day ([1]; 4 consecutive days, ip, FIG. 4A, first group of animals) | dose giving about the same mobilization of bone calcium as native hormone at 780 pmol/day ([1]; 4 consecutive days, ip, FIG. 4B, second group of animals) | bone calcium mobilization activity, times less than 1,25(OH)2D3 ([1]; FIGS. 4A and 4B) | EC50 [2] | intestinal calcium transport activity at 87 pmol/day ([3]; 87 pmol/day for 4 consecutive days, FIG. 5A) | intestinal calcium transport activity at 260 pmol/day and then 780 pmol/day ([3]; 260 pmol/day and 780 pmol/day, 4 consecutive days, FIG. 5A) | intestinal calcium transport activity compared with 1,25(OH)2D3 ([3]; in vivo, dose dependent, FIGS. 5A and 5B) | Ki [4] | EC50 (HL-60 cells; Homo sapiens) | serum calcium levels (bone calcium mobilization) ([1]; vitamin D-deficient rats, low calcium diet (0.02%), all dosages, FIGS. 4A and 4B) | EC50 (HL-60 cells) |
| --- | --- | --- | --- | --- | --- | --- | --- | --- | --- | --- | --- | --- |
| C=C1[C@H](O)CC(=C/C=C2\CCC[C@]3(C)[C@@H]([C@H](C)/C=C/C(=O)C4(C(=O)CCCCC)CC4)CC[C@@H]23)C[C@H]1O [UW-05, 2-methylene-(22E)-25-hexanoyl-24-oxo-26,27-cyclo-22-dehydro-19-nor-1α-hydroxyvitamin D3] | no substantial effect was seen | 780 pmol/day | 7020 pmol/day | about 10 times | 0.3 nM | did not result in substantial activity | a significant increase in effect was seen | approximately equal to 1,25-dihydroxyvitamin D3 | 0.3 nM | 4 nM | – | – |
| C=C1/C(=C\C=C2/CCC[C@]3(C)[C@@H]([C@H](C)CCCC(C)(C)O)CC[C@@H]23)C[C@@H](O)C[C@@H]1O [1α,25-dihydroxyvitamin D3, reference compound] | – | – | – | – | 0.3 nM | – | – | – | – | – | increased serum calcium levels at all dosages | 2 nM |
